≈ marks a conversion by molar mass, not a printed value.
Tests used:
Type in all cases: functional
Staphylococcus aureus [1] = experiment: Bactericidal activity against methicillin-resistant Staphylococcus aureus PU20 expressing constitutive ermC incubated for 20 hrs followed by sub-culturing for 24 hrs in absence of compound
Streptococcus pyogenes [2] = experiment: Bacteriostatic activity against Streptococcus pyogenes 01-968 expressing inducible ermA after 20 to 24 hrs by two-fold microbroth dilution method
Moraxella catarrhalis [3] = experiment: Bacteriostatic activity against erythromycin-susceptible Moraxella catarrhalis 13L332 after 20 hrs by two-fold microbroth dilution method; conditions: 13L332, 20 h
Streptococcus pneumoniae [4] = experiment: Bactericidal activity against penicillin-susceptible Streptococcus pneumoniae PU09 incubated for 20 to 24 hrs followed by sub-culturing for 24 hrs in absence of compound
Moraxella catarrhalis [5] = experiment: Bactericidal activity against erythromycin-susceptible Moraxella catarrhalis 13L332 incubated for 20 hrs followed by sub-culturing for 24 hrs in absence of compound
Streptococcus pneumoniae [6] = experiment: Bacteriostatic activity against penicillin-susceptible Streptococcus pneumoniae PU09 after 20 to 24 hrs by two-fold microbroth dilution method
Staphylococcus aureus [7] = experiment: Bacteriostatic activity against methicillin-resistant Staphylococcus aureus PU20 expressing constitutive ermC after 20 hrs by two-fold microbroth dilution method; conditions: PU20, 20 h
Staphylococcus aureus [8] = experiment: Bactericidal activity against methicillin-resistant Staphylococcus aureus PU32 expressing inducible ermA incubated for 20 hrs followed by sub-culturing for 24 hrs in absence of compound
Streptococcus pneumoniae [9] = experiment: Bacteriostatic activity against […] Streptococcus pneumoniae ATCC 49619 after 20 to 24 hrs by two-fold microbroth dilution method
Streptococcus pyogenes [10] = experiment: Bactericidal activity against Streptococcus pyogenes 01-968 expressing inducible ermA incubated for 20 to 24 hrs followed by sub-culturing for 24 hrs in absence of compound
Streptococcus pneumoniae [11] = experiment: Bactericidal activity against […] Streptococcus pneumoniae ATCC 49619 incubated for 20 to 24 hrs followed by sub-culturing for 24 hrs in absence of compound
Staphylococcus aureus [12] = experiment: Bacteriostatic activity against methicillin-resistant Staphylococcus aureus PU32 expressing inducible ermA after 20 hrs by two-fold microbroth dilution method; conditions: PU32, 20 h
Streptococcus pneumoniae [13] = experiment: Ratio of MBC to MIC for […] Streptococcus pneumoniae ATCC 49619
Moraxella catarrhalis [14] = experiment: Ratio of MBC to MIC against erythromycin-susceptible Moraxella catarrhalis 13L332
Moraxella catarrhalis [15] = experiment: Bacteriostatic activity against erythromycin-susceptible Moraxella catarrhalis 11B366 after 20 hrs by two-fold microbroth dilution method; conditions: 11B366, 20 h
Moraxella catarrhalis [16] = experiment: Bactericidal activity against erythromycin-susceptible Moraxella catarrhalis 11B366 incubated for 20 hrs followed by sub-culturing for 24 hrs in absence of compound
Streptococcus pneumoniae [17] = experiment: Ratio of MBC to MIC for penicillin-susceptible Streptococcus pneumoniae PU09
Haemophilus influenzae [18] = experiment: Ratio of MBC to MIC for azithromycin susceptible/ampicillin-resistant Haemophilus influenzae 11P307
Streptococcus pyogenes [19] = experiment: Bactericidal activity against Streptococcus pyogenes 12-207 expressing mef incubated for 20 to 24 hrs followed by sub-culturing for 24 hrs in absence of compound
Staphylococcus aureus [20] = experiment: Ratio of MBC to MIC for methicillin-resistant Staphylococcus aureus PU20 expressing constitutive ermC
Streptococcus pyogenes [21] = experiment: Bacteriostatic activity against Streptococcus pyogenes 12-207 expressing mef after 20 to 24 hrs by two-fold microbroth dilution method
Streptococcus pyogenes [22] = experiment: Ratio of MBC to MIC for Streptococcus pyogenes 01-968 expressing inducible ermA
Streptococcus pyogenes [23] = experiment: Ratio of MBC to MIC for Streptococcus pyogenes 12-207 expressing mef
Moraxella catarrhalis [24] = experiment: Ratio of MBC to MIC against erythromycin-susceptible Moraxella catarrhalis 11B366
Staphylococcus aureus [25] = experiment: Ratio of MBC to MIC against methicillin-resistant Staphylococcus aureus PU32 expressing inducible ermA
Haemophilus influenzae [26] = experiment: Bactericidal activity against azithromycin susceptible/ampicillin-resistant Haemophilus influenzae 11P307 incubated for 20 to 24 hrs followed by sub-culturing for 24 hrs in absence of compound
Haemophilus influenzae [27] = experiment: Bacteriostatic activity against azithromycin-susceptible/ampicillin-resistant Haemophilus influenzae 11P307 after 20 to 24 hrs by two-fold microbroth dilution method

CC[C@H]1OC(=O)[C@H](C)[C@H](OC(=O)Cc2ccccn2)[C@H](C)[C@@H](O[C@@H]2O[C@H](C)C[C@H](N(C)C)[C@H]2O)[C@](C)(OC)C[C@@H](C)/C(=N\OC)[C@H](C)[C@H]2OC(=O)O[C@@]21C
MBC (Staphylococcus aureus [1]): > 256 µg/mL | MIC (Streptococcus pyogenes [2]): > 64 µg/mL | MIC (Moraxella catarrhalis [3]): 32 µg/mL (≈ 41.9 µM) | MBC (Streptococcus pneumoniae [4]): > 64 µg/mL | MBC (Moraxella catarrhalis [5]): > 64 µg/mL | MIC (Streptococcus pneumoniae [6]): 32 µg/mL (≈ 41.9 µM) | MIC (Staphylococcus aureus [7]): > 256 µg/mL | MBC (Staphylococcus aureus [8]): > 256 µg/mL | MIC (Streptococcus pneumoniae [9]): > 64 µg/mL | MBC (Streptococcus pyogenes [10]): > 64 µg/mL | MBC (Streptococcus pneumoniae [11]): > 64 µg/mL | MIC (Staphylococcus aureus [12]): > 256 µg/mL

CC[C@H]1OC(=O)[C@@](C)(F)[C@H](OC(=O)Cc2ccccn2)[C@H](C)[C@@H](O[C@@H]2O[C@H](C)C[C@H](N(C)C)[C@H]2O)[C@](C)(OC)C[C@@H](C)/C(=N\OC)[C@H](C)[C@H]2OC(=O)O[C@@]21C
MBC (Staphylococcus aureus [1]): > 256 µg/mL | MIC (Streptococcus pyogenes [2]): 64 µg/mL (≈ 81.9 µM) | MIC (Moraxella catarrhalis [3]): 32 µg/mL (≈ 40.9 µM) | MBC (Streptococcus pneumoniae [4]): > 64 µg/mL | Ratio (Streptococcus pneumoniae [13]): 1 | MBC (Moraxella catarrhalis [5]): 64 µg/mL (≈ 81.9 µM) | MIC (Streptococcus pneumoniae [6]): 32 µg/mL (≈ 40.9 µM) | MIC (Staphylococcus aureus [7]): > 256 µg/mL | Ratio (Moraxella catarrhalis [14]): 2 | MBC (Staphylococcus aureus [8]): > 256 µg/mL | MIC (Streptococcus pneumoniae [9]): 64 µg/mL (≈ 81.9 µM) | MBC (Streptococcus pyogenes [10]): > 64 µg/mL | MBC (Streptococcus pneumoniae [11]): 64 µg/mL (≈ 81.9 µM) | MIC (Staphylococcus aureus [12]): > 256 µg/mL

CC[C@H]1OC(=O)[C@H](C)C(=O)[C@H](C)[C@@H](O[C@@H]2O[C@H](C)C[C@H](N(C)C)[C@H]2O)[C@](C)(OC)C[C@@H](C)/C(=N\OCC#Cc2cncc3ccccc23)[C@H](C)[C@H]2OC(=O)O[C@@]21C
MIC (Moraxella catarrhalis [15]): 4 µg/mL (≈ 5.04 µM) | MBC (Moraxella catarrhalis [16]): 4 µg/mL (≈ 5.04 µM) | MBC (Staphylococcus aureus [1]): 64 µg/mL (≈ 80.6 µM) | MIC (Streptococcus pyogenes [2]): 0.25 µg/mL (≈ 0.315 µM) | Ratio (Streptococcus pneumoniae [17]): 2 | MBC (Streptococcus pneumoniae [4]): 0.5 µg/mL (≈ 0.63 µM) | Ratio (Haemophilus influenzae [18]): >8 | MBC (Streptococcus pyogenes [19]): > 0.125 µg/mL | Ratio (Staphylococcus aureus [20]): 2 | MIC (Streptococcus pyogenes [21]): 0.016 µg/mL (≈ 0.0202 µM) | Ratio (Streptococcus pneumoniae [13]): >=4 | Ratio (Streptococcus pyogenes [22]): >8 | Ratio (Streptococcus pyogenes [23]): >8 | MIC (Streptococcus pneumoniae [6]): 0.25 µg/mL (≈ 0.315 µM) | MIC (Staphylococcus aureus [7]): 32 µg/mL (≈ 40.3 µM) | MBC (Staphylococcus aureus [8]): > 8 µg/mL | Ratio (Moraxella catarrhalis [24]): 1 | Ratio (Staphylococcus aureus [25]): >8 | MIC (Streptococcus pneumoniae [9]): ≤ 0.008 µg/mL | MBC (Streptococcus pyogenes [10]): > 2 µg/mL | MBC (Haemophilus influenzae [26]): > 128 µg/mL | MBC (Streptococcus pneumoniae [11]): 0.031 µg/mL (≈ 0.039 µM) | MIC (Haemophilus influenzae [27]): 16 µg/mL (≈ 20.2 µM) | MIC (Staphylococcus aureus [12]): 1 µg/mL (≈ 1.26 µM)

CC[C@H]1OC(=O)[C@H](C)[C@H](OC(=O)c2ccccn2)[C@H](C)[C@@H](O[C@@H]2O[C@H](C)C[C@H](N(C)C)[C@H]2O)[C@](C)(OC)C[C@@H](C)/C(=N\OC)[C@H](C)[C@H]2OC(=O)O[C@@]21C
MBC (Staphylococcus aureus [1]): > 256 µg/mL | MIC (Streptococcus pyogenes [2]): > 64 µg/mL | MIC (Moraxella catarrhalis [3]): 32 µg/mL (≈ 42.7 µM) | MBC (Streptococcus pneumoniae [4]): > 64 µg/mL | MBC (Moraxella catarrhalis [5]): > 64 µg/mL | MIC (Streptococcus pneumoniae [6]): 64 µg/mL (≈ 85.3 µM) | MIC (Staphylococcus aureus [7]): > 256 µg/mL | MBC (Staphylococcus aureus [8]): > 256 µg/mL | MIC (Streptococcus pneumoniae [9]): 64 µg/mL (≈ 85.3 µM) | MBC (Streptococcus pyogenes [10]): > 64 µg/mL | MBC (Streptococcus pneumoniae [11]): > 64 µg/mL | MIC (Staphylococcus aureus [12]): > 256 µg/mL

CC[C@H]1OC(=O)[C@@](C)(F)C(=O)[C@H](C)[C@@H](O[C@@H]2O[C@H](C)C[C@H](N(C)C)[C@H]2O)[C@](C)(OC)C[C@@H](C)/C(=N\OC/C=C/c2ccc3ncccc3c2)[C@H](C)[C@H]2OC(=O)O[C@@]21C
MIC (Moraxella catarrhalis [15]): 2 µg/mL (≈ 2.46 µM) | MBC (Moraxella catarrhalis [16]): 2 µg/mL (≈ 2.46 µM) | MBC (Staphylococcus aureus [1]): 64 µg/mL (≈ 78.6 µM) | MIC (Streptococcus pyogenes [2]): 0.25 µg/mL (≈ 0.307 µM) | Ratio (Streptococcus pneumoniae [17]): 2 | MBC (Streptococcus pneumoniae [4]): 1 µg/mL (≈ 1.23 µM) | Ratio (Haemophilus influenzae [18]): >8 | MBC (Streptococcus pyogenes [19]): > 0.5 µg/mL | Ratio (Staphylococcus aureus [20]): 2 | MIC (Streptococcus pyogenes [21]): 0.062 µg/mL (≈ 0.0762 µM) | Ratio (Streptococcus pneumoniae [13]): >=2 | Ratio (Streptococcus pyogenes [22]): 4 | Ratio (Streptococcus pyogenes [23]): >8 | MIC (Streptococcus pneumoniae [6]): 0.5 µg/mL (≈ 0.614 µM) | MIC (Staphylococcus aureus [7]): 32 µg/mL (≈ 39.3 µM) | MBC (Staphylococcus aureus [8]): > 8 µg/mL | Ratio (Moraxella catarrhalis [24]): 1 | Ratio (Staphylococcus aureus [25]): >8 | MIC (Streptococcus pneumoniae [9]): ≤ 0.008 µg/mL | MBC (Streptococcus pyogenes [10]): 1 µg/mL (≈ 1.23 µM) | MBC (Haemophilus influenzae [26]): > 64 µg/mL | MBC (Streptococcus pneumoniae [11]): 0.016 µg/mL (≈ 0.0197 µM) | MIC (Haemophilus influenzae [27]): 8 µg/mL (≈ 9.83 µM) | MIC (Staphylococcus aureus [12]): 1 µg/mL (≈ 1.23 µM)
